Measured values published in PMC12081876, “Identification of PTGR2 inhibitors as a new therapeutic strategy for diabetes and obesity” (EMBO Molecular Medicine, 2025).

Experiments:
[1] = system: phospho-Akt; assay: Insulin signaling in vivo (phospho-Akt immunoblot); parameters: species or system mouse; conditions: 40 mg/kg/day ip, HFHSD-fed mice, vs vehicle
Procedure: To evaluate insulin signaling in vivo, mice were fasted overnight. Tissue was harvested 15 min after intraperitoneal insulin injection. The samples (perigonadal fat, inguinal fat, brown adipose tissue and liver) were extracted with RIPA buffer (50 mM Tris-HCl, pH 7.4, 2 mM ethylenediaminetetraacetic acid [EDTA]), 150 mM NaCl, 50 mM NaF, 1% Nonidet P-40, 1 mM phenylmethylsulfonyl fluoride [PMSF], 0.5% sodium deoxycholate, and 0.1% sodium dodecyl sulfate [SDS]) containing phosphatase inhibitor cocktail (cat. no. 04693132001, Roche) and homogenized. The homogenates were then centrifuged at 13,000 rpm for 10 min at 4 °C to remove debris. Samples were separated by SDS-polyacrylamide gel electrophoresis, transferred to polyvinylidene difluoride (PVDF) membrane, blocked with 3% BSA, and probed with anti-phospho-Akt antibody (cat. no. 4058, Cell Signaling) and anti-Akt antibody (cat. no. 9272, Cell Signaling), and then with HRP conjugated anti-rabbit IgG antibody (1:10,000; cat. no. GTX26721, GeneTex).

[2] = system: murine PPARγ Ser273 phosphorylation; assay: TNFα-induced PPARγ Ser273 phosphorylation in 3T3-L1 adipocytes; type: cell-based; conditions: cultured murine adipocytes
Procedure: For cell-based assay, 3T3-L1 cells were induced differentiation one day after achieving 100% confluence with 0.5 mM IBMX, 1 µm dexamethasone and 10 μg/mL insulin in DMEM containing 10% FBS for 2 days and maintained differentiation in DMEM supplemented with 10 μg/mL insulin and 10% FBS for 4 days. The medium was changed every 2 days. […] Then TNFα was added to induce PPARγ phosphorylation in a concentration of 50 ng/ml for 15 min. Cells were harvested and lysed in RIPA buffer supplemented with 1X cOmplete™, EDTA-free Protease Inhibitor Cocktail (cat. no. 04693132001, Roche) and 1X PhosSTOP™ (cat. no. 4906845001, Roche).
The protein concentrations of tissue lysates were measured by Bradford reagent (cat. no. BP500-0006, Bio-Rad). The protein samples were mixed with 6X sample buffer (0.3 M Tris-HCl, pH 6.8, 0.6 M DTT, 12% SDS, 0.6% Bromophenel blue and 60% glycerol) and heated at 70 °C for 5 min. 30 μg of each sample were separated by 10% SDS-PAGE gel and were transferred to PVDF membrane. The membrane was blocked by 3% BSA in Tris-buffered saline containing 0.1% Tween-20 for 1 h at room temperature and incubated with primary antibody at 4 °C overnight. […] Protein expression of phospho-PPARγ was analyzed using ImageJ software and normalized against PPARγ and GAPDH.

[3] = system: murine PPARγ Ser273 phosphorylation; assay: PPARγ Ser273 phosphorylation in adipose tissue of mice; type: in vivo, mouse; conditions: 40 mg/kg/day, 3 weeks, HFHSD
Procedure: The epididymal adipose tissues were obtained and lysed in RIPA buffer supplemented with 1X cOmplete™, EDTA-free Protease Inhibitor Cocktail (cat no.04693132001, Roche) and 1X PhosSTOP™ (cat. no. 4906845001, Roche).
The protein concentrations of tissue lysates were measured by Bradford reagent (cat. no. BP500-0006, Bio-Rad). The protein samples were mixed with 6X sample buffer (0.3 M Tris-HCl, pH 6.8, 0.6 M DTT, 12% SDS, 0.6% Bromophenel blue and 60% glycerol) and heated at 70 °C for 5 min. 30 μg of each sample were separated by 10% SDS-PAGE gel and were transferred to PVDF membrane. The membrane was blocked by 3% BSA in Tris-buffered saline containing 0.1% Tween-20 for 1 h at room temperature and incubated with primary antibody at 4 °C overnight. Primary antibodies include anti-Ser273 phospho-PPARγ (1:1000, cat. no. BS-4888R, Bioss), anti-PPARγ (1:1500, cat. no.16643-1-AP, Proteintech) and anti-GAPDH (1:5000, cat. no. GTX100118, GeneTex). On the next day, the membranes were incubated with the anti-rabbit IgG HRP-secondary antibody (1:10,000, cat. no. GTX213110-01, GeneTex) for 1 h at RT. Immunoblots were developed using the Immobilon Forte Western HRP Substrate (cat. no. WBLUF0500, Lot Number: 231445, Millipore) and exposed by MultiGel-21 (cat. no. MGIS-21-C2, EBL). Protein expression of phospho-PPARγ was analyzed using ImageJ software and normalized against PPARγ and GAPDH.

[4] = system: PTGR2; assay: 15-keto-PGE2 content in fat tissue after BPRPT0245 dosing; type: in vivo, mouse; conditions: BPRPT0245 100 mg/kg/day oral, 4 days, 2 h after last dose, vs vehicle
Procedure: Liquid nitrogen-frozen tissue was grinded using pestle and mortar. Approximately 500 mg of tissue powders were immersed with 400 μL of the upper layer of acetonitrile (ACN)/hexane mixture supplemented with 0.5% formic acid, and then homogenized with ceramic beads by MagNA Lyser (Roche, USA). The homogenate was then added with 600 μL ACN containing 13,14 dihydro-15-keto-PGE2-d4 (cat no. 10007978, Cayman Chemical, Ann Arbor, MI) in 1:20,000 dilution and homogenized, followed by the addition of 600 μL ddH2O. The mixture was centrifuged at 12,000 × g for 10 min at 0 °C. The lower layer was transferred to a new tube. A C-18 solid-phase extraction (SPE) cartridge (Cat no. 400020, Cayman Chemical) was sequentially activated with 20 mL methanol and 20 mL ddH2O. The protein sample was loaded into activated SPE cartridge. Once the sample passed the cartridge, the cartridge was washed with 5 mL 15% methanol and then 5 mL ddH2O. Finally, the sample was eluted with 10 mL HPLC-degree methanol (Methanol Chromasolv LC-MS, Fluka) and aliquoted into new 2-mL tubes. […]
The HPLC system consisted of an Agilent 1200 series LC System with BinPump (Waldbronn, Germany) and an Agilent Eclipse XDB C8 (3.0 × 150 mm, 5 µm) interfaced to a Sciex API 4000 tandem mass spectrometer. […] The ions monitored for BPRPT0245 were m/z 447/189 and m/z 357/195, respectively. […]

SMILES	phospho-Akt after insulin injection (immunoblot) [1]	phosphorylation of PPARγ Ser273 [2]	phosphorylation of PPARγ Ser273 [3]	increase of 15-keto-PGE2 content in inguinal fat [4]	increase of 15-keto-PGE2 content in perigonadal fat ([4]; trend)
CCCCCC(=O)/C=C/[C@H]1[C@H](O)CC(=O)[C@@H]1C/C=C\CCCC(=O)O [15-keto-PGE2, 15-keto-prostaglandin E2]	increased phospho-Akt in perigonadal fat, inguinal fat, brown adipose tissue, and liver	dose-dependently reduced phosphorylation of Ser273	dose-dependently reduced phosphorylation of Ser273	–	–
Cc1[nH]c2nc(C(C)N3CCN(c4ccccc4)CC3)nn2c(=O)c1Cc1ccc(F)cc1 (centres unmarked) [BPRPT0245]	–	–	–	~ 1.32 fold	~ 1.34 fold
